Assay [1] deals with KO-52 cells. Description: Proliferation assay (spheroid growth, 8 days), KO-52 control cell line. Format: cell-based, human. To be noted: Homo sapiens, […], read-out: spheroid assay_OneTime KO-52 IC50. In short, it runs like this:
(§1)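 Spheroid size on day 8, taken as live-cell imaging confluence, served as readout after 8-day compound exposure (0.3% DMSO, 37 °C, 5% CO2) in round-bottom low-attachment wells. Seeding was 200 cells for MOLM14 and OCI-AML3, 300 for KO-52. IC50 came from % effect versus DMSO and reference baseline, fitted with variable slope.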

Assay [2] concerns MEIS1 mRNA. Description: MEIS1 mRNA expression assay (Quantigene Singleplex) in MOLM14 cells.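 Also: MEIS1 transcript levels read by probe hybridization and normalized to RPL28 mRNA, with IC50 fitted to fold changes across a rising compound concentration series.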 Format: cell-based, human. The note with it: Homo sapiens, MOLM-14, 48 h, 48 hours incubation.
Assay [3] concerns OCI-AML3 cells. Description: Proliferation assay (spheroid growth, 8 days), OCI-AML3. Format: cell-based, human. The note with it: Homo sapiens, OCI-AML-3, […], OCI-AML3, 8 days. In short, it runs like this: as §1
In assay [4] the target is menin/MLL (terbium chelate-labeled menin, FITC-MBM1 peptide) (Homo sapiens (Human), UniProt O00255). Description: Menin/MLL homogenous time-resolved fluorescence (HTRF) assay.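 Also: IC50 from percent inhibition of HTRF signal, normalized between wells without competitor and wells with a saturating competitor that displaces FITC-MBM1 from His-tagged menin.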 Format: binding. To be noted: HTRF-30 min incubation IC50, 30 min incubation. A general note: In TR-FRET formats the signal depends on donor and acceptor labels being close together.
Sequence of menin/MLL (terbium chelate-labeled menin, FITC-MBM1 peptide) (O00255 other isoform, or with tags, fused parts or gaps): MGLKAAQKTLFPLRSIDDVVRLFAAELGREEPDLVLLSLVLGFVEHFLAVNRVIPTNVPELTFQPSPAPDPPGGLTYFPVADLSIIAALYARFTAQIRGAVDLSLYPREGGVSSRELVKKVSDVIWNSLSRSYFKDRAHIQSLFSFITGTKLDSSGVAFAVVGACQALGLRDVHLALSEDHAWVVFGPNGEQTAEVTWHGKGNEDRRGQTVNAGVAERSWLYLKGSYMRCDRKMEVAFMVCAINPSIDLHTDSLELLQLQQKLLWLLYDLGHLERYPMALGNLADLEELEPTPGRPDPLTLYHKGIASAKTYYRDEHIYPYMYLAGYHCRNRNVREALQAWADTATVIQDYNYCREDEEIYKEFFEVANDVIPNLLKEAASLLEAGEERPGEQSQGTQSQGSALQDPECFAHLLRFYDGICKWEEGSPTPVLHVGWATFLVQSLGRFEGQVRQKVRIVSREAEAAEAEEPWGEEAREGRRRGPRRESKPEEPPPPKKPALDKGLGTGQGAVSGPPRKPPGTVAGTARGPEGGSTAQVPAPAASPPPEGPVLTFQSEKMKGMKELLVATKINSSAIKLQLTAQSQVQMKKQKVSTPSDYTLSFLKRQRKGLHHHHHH
The test system of assay [5] is MOLM14 cells. Description: Proliferation assay (spheroid growth, 8 days), MOLM14.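 Also: spheroid size read as confluence by live-cell imaging, compounds added at a range of concentrations with 0.3% DMSO, DMSO-treated wells = 0%, highest reference dose = low control.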 Format: cell-based, human. The note with it: Homo sapiens, MOLM-14, […], MOLM14, 8 days; read-out: spheroid assay_OneTime MOLM14 IC50.

pIC50: −log10 of the molar value. Where a name gives a salt, the structure may show the parent alone.

The term pIC50 denotes the IC50 on a negative log10 scale, so that one unit is a factor of ten. On to `CCN(C(=O)c1cc(F)ccc1Oc1nncnc1N1CCC2(C1)CN([C@H](CCCN(C)[C@H](C)CC(=O)N(C)C)C(C)C)C2)C(C)C` (single isomer, unassigned) [Compound 184, 2-((5-(2-((R)-6-(((*R)-4-(dimethylamino)-4-oxobutan-2-yl)(methyl)amino)-2-methylhexan-3-yl)-2,6-diazaspiro[3.4]octan-6-yl)-1,2,4-triazin-6-yl)oxy)-N-ethyl-5-fluoro-N-isopropylbenzamide fumarate], for which the pIC50 in assay [1] was 5.52; in assay [2], 6.96; in assay [3] it was 6.72; in assay [4] it was ~9.44; in assay [5], 6.64.
Consider `CCN(C(=O)c1cc(F)ccc1Oc1nncnc1N1CCC2(C1)CN([C@H](CCCN(C)[C@@H](C)CC(=O)NC)C(C)C)C2)C(C)C` [Compound 193, N-ethyl-5-fluoro-N-isopropyl-2-((5-(2-((R)-2-methyl-6-(methyl((S)-4-(methylamino)-4-oxobutan-2-yl)amino)hexan-3-yl)-2,6-diazaspiro[3.4]octan-6-yl)-1,2,4-triazin-6-yl)oxy)benzamide fumarate], for which the pIC50 in assay [1] was < 4.82; in assay [2] it was 6.92; in assay [3] it was 6.54; in assay [4] it was ~9.59; in assay [5], 6.77.
In the same order, the values of `CC(C)[C@@H](CCCN(C)C[C@@H](C)C(N)=O)N1CC2(CCN(c3ncnnc3Oc3ccc(F)cc3C(=O)N(C(C)C)C(C)C)C2)C1` (single isomer, unassigned) [Compound 203, 2-((5-(2-((*R)-6-(((S)-3-amino-2-methyl-3-oxopropyl)(methyl)amino)-2-methylhexan-3-yl)-2,6-diazaspiro[3.4]octan-6-yl)-1,2,4-triazin-6-yl)oxy)-5-fluoro-N,N-diisopropylbenzamide fumarate] are < 4.82, 7.38, 7.12, 9.52 and 7.42.
`CCCN(C)CCC[C@H](C(C)C)N1CC2(CCN(c3ncnnc3Oc3ccc(F)cc3C(=O)N(CC)C(C)C)C2)C1` (single isomer, unassigned) [Compound 127, (*R)—N-ethyl-5-fluoro-N-isopropyl-2-((2-methyl-6-(methyl(propyl)amino)hexan-3-yl)-2,6-diazaspiro[3.4]octan-6-yl)-1,2,4-triazin-6-yl)oxy)benzamide fumarate]: the pIC50 in assay [1] is 4.95; in assay [2], 7.36; in assay [3], 6.85; in assay [4] it was 10.05; in assay [5], 7.59.
Regarding `CC(C)[C@H](CCCN(C)C)N1CC2(CCN(c3ncnnc3Oc3ccc(F)cc3C(=O)N(C(C)C)C(C)C)C2)C1` (single isomer, unassigned) [Compound 103, (*S)-2-((5-(2-(6-(dimethylamino)-2-methylhexan-3-yl)-2,6-diazaspiro[3.4]octan-6-yl)-1,2,4-triazin-6-yl)oxy)-5-fluoro-N,N-diisopropylbenzamide fumarate], the negative-log IC50 (pIC50) in assay [1] is < 4.82; in assay [2], 6.38; in assay [3] it was 5.87; in assay [4], 8.61; in assay [5], 6.54.
The matching figures for `CCN(C(=O)c1cc(F)ccc1Oc1nncnc1N1CCC2(C1)CN([C@H](CCCN(C)C[C@@H](C)C(=O)NC)C(C)C)C2)C(C)C` [Compound 195, N-ethyl-5-fluoro-N-isopropyl-2-((5-(2-((R)-2-methyl-6-(methyl((R)-2-methyl-3-(methylamino)-3-oxopropyl)amino)hexan-3-yl)-2,6-diazaspiro[3.4]octan-6-yl)-1,2,4-triazin-6-yl)oxy)benzamide fumarate]: < 4.82, 7.25, 7.24, ~9.40 and 7.15.
In the same order, the values of `CCN(CC)C[C@H](O)C[C@@H](C(C)C)N1CC2(CCN(c3ncnnc3Oc3ccc(F)cc3C(=O)N(CC)C(C)C)C2)C1` (single isomer, unassigned) [Compound 336, 2-((5-(2-((3*S,5*R)-6-(diethylamino)-5-hydroxy-2-methylhexan-3-yl)-2,6-diazaspiro[3.4]octan-6-yl)-1,2,4-triazin-6-yl)oxy)-N-ethyl-5-fluoro-N-isopropylbenzamide fumarate] are < 4.82, 7.21, 6.06, 9.68 and 7.15.
In the case of `CCN(C(=O)c1cc(F)ccc1Oc1nncnc1N1CCC2(C1)CN([C@H](CCCN[C@H](CO)COC)C(C)C)C2)C(C)C` [Compound 162, N-ethyl-5-fluoro-2-((5-(2-((R)-6-(((R)-1-hydroxy-3-methoxypropan-2-yl)amino)-2-methylhexan-3-yl)-2,6-diazaspiro[3.4]octan-6-yl)-1,2,4-triazin-6-yl)oxy)-N-isopropylbenzamide], the pIC50 in assay [1] is < 4.82; in assay [2], ~7.72; in assay [3], 7.59; in assay [4] it was 10.02; in assay [5] it was 7.89.
The matching figures for `CCN(C(=O)c1cc(F)ccc1Oc1nncnc1N1CCC2(C1)CN([C@H](CCCN(C)C(C)C)C(C)C)C2)C(C)C` (single isomer, unassigned) [Compound 122, (*R)—N-ethyl-5-fluoro-N-isopropyl-2-((5-(2-(6-(isopropyl(methyl)amino)-2-methylhexan-3-yl)-2,6-diazaspiro[3.4]octan-6-yl)-1,2,4-triazin-6-yl)oxy)benzamide fumarate]: < 4.82, 7.47, 6.82, 10.19 and 7.68.
On to `CCN(C(=O)c1cc(F)ccc1Oc1nncnc1N1CCC2(C1)CN([C@H](CCCN(C)C[C@@H](O)COC)C(C)C)C2)C(C)C` [Compound 283, N-ethyl-5-fluoro-2-((5-(2-((R)-6-(((R)-2-hydroxy-3-methoxypropyl)(methyl)amino)-2-methylhexan-3-yl)-2,6-diazaspiro[3.4]octan-6-yl)-1,2,4-triazin-6-yl)oxy)-N-isopropylbenzamide fumarate], for which the pIC50 was < 4.82 in assay [1]; 8.00 in assay [2]; 7.34 in assay [3]; 10.27 in assay [4]; 7.85 in assay [5].
The matching figures for `CCN(C(=O)c1cc(F)ccc1Oc1nncnc1N1CCC2(C1)CN([C@H](CCCN(C)[C@@H](C)COC)C(C)C)C2)C(C)C` [Compound 157, N-ethyl-5-fluoro-N-isopropyl-2-((5-(2-((R)-6-((S)-1-methoxypropan-2-yl)(methyl)amino)-2-methylhexan-3-yl)-2,6-diazaspiro[3.4]octan-6-yl)-1,2,4-triazin-6-yl)oxy)benzamide fumarate]: 4.86, 7.66, 7.08, 9.92 and 7.68.
The matching figures for `CCN(C(=O)c1cc(F)ccc1Oc1nncnc1N1CCC2(C1)CN([C@H](CN)C(C)C)C2)C(C)C` (single isomer, unassigned) [Compound 24, (*S)-2-((5-(2-(1-amino-3-methylbutan-2-yl)-2,6-diazaspiro[3.4]octan-6-yl)-1,2,4-triazin-6-yl)oxy)-N-ethyl-5-fluoro-N-isopropylbenzamide]: < 4.82, ~6.08, 5.57, 9.01 and 6.16.
